Molecular target: T1, Jarid1A (Homo sapiens, UniProt P29375)
T1 construct: purchased BPS Bioscience 50110
T1 sequence (P29375 1-1090): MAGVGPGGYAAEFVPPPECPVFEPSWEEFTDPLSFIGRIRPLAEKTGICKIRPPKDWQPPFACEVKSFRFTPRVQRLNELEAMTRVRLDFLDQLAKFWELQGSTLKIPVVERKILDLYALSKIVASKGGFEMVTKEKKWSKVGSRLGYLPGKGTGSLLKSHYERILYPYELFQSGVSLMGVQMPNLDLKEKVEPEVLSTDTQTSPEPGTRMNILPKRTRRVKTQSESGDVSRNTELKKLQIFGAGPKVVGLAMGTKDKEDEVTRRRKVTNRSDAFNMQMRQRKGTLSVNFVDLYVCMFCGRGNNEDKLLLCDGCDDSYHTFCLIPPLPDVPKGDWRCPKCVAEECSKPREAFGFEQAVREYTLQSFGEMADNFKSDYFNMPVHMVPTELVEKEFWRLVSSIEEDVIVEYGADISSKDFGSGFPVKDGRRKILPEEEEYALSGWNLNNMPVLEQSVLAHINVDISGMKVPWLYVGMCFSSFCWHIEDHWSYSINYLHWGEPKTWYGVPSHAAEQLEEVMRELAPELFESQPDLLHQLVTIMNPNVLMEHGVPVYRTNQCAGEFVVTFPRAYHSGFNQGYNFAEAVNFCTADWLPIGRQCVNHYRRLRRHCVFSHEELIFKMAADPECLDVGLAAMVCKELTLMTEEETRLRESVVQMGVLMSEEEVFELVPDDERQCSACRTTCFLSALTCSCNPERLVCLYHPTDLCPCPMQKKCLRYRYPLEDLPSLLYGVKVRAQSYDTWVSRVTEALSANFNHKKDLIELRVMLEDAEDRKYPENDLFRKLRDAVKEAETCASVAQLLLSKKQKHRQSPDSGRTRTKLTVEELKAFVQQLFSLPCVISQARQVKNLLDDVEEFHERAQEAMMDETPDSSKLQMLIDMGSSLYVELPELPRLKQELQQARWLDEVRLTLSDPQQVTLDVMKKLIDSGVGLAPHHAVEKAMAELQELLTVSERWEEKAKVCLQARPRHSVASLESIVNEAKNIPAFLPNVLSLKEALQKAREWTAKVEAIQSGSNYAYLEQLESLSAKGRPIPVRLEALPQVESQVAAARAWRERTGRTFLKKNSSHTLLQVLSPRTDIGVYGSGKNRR
Experiment: Jarid1A in vitro enzyme inhibition assay (TR-FRET)
Type: biochemical
How it was run: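 Demethylation of 300 nM biotin-H3K4me3 peptide by 1 nM baculovirus-expressed Jarid1A (aa 1–1090) with 2 μM α-ketoglutarate, Fe(II) and ascorbate, pH 7.3, 30 min at room temperature. Stopped with EDTA; H3K4me1-2 product detected by TR-FRET (Eu anti-H3K4me1-2/streptavidin-APC). IC50 fitted from 665/615 ratio over 11-point dilutions.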

Compound: O=C(c1ccccc1)N1CC[C@@H](n2cc(Oc3nc(O)c4ccncc4n3)cn2)C1 [Example 132, 2-({1-[(3R)-1-benzoylpyrrolidin-3-yl]-1H-pyrazol-4-yl}oxy)pyrido[3,4-d]pyrimidin-4-ol]
- IC50: ≤ 100 nM

Compound: Oc1nc(Oc2cnn([C@@H]3CCN(Cc4ccccc4)C3)c2)nc2cnccc12 [Example 133, 2-({1-[(3R)-1-benzylpyrrolidin-3-yl]-1H-pyrazol-4-yl}oxy)pyrido[3,4-d]pyrimidin-4-ol]
- IC50: ≤ 100 nM

Compound: Oc1nc(Oc2cnn([C@@H]3CCN(c4ccc(F)cc4)C3)c2)nc2cnccc12 [Example 134, 2-({1-[(3R)-1-(4-fluorophenyl)pyrrolidin-3-yl]-1H-pyrazol-4-yl}oxy)pyrido[3,4-d]pyrimidin-4-ol]
- IC50: ≤ 100 nM

Compound: Oc1nc(Oc2cnn([C@H]3CCNC3)c2)nc2cnccc12 [Example 135, 2-({1-[(3S)-pyrrolidin-3-yl]-1H-pyrazol-4-yl}oxy)pyrido[3,4-d]pyrimidin-4-ol]
- IC50: 100 to 1000 nM

Compound: CCS(=O)(=O)N1CC[C@H](n2cc(Oc3nc(O)c4ccncc4n3)cn2)C1 [Example 136, 2-({1-[(3S)-1-(ethanesulfonyl)pyrrolidin-3-yl]-1H-pyrazol-4-yl}oxy)pyrido[3,4-d]pyrimidin-4-ol]
- IC50: ≤ 100 nM

Compound: O=S(=O)(C1CC1)N1CC[C@H](n2cc(Oc3nc(O)c4ccncc4n3)cn2)C1 [Example 137, 2-({1-[(3S)-1-(cyclopropanesulfonyl)pyrrolidin-3-yl]-1H-pyrazol-4-yl}oxy)pyrido[3,4-d]pyrimidin-4-ol]
- IC50: ≤ 100 nM

Compound: O=S(=O)(c1ccccc1)N1CC[C@H](n2cc(Oc3nc(O)c4ccncc4n3)cn2)C1 [Example 138, 2-({1-[(3S)-1-(benzenesulfonyl)pyrrolidin-3-yl]-1H-pyrazol-4-yl}oxy)pyrido[3,4-d]pyrimidin-4-ol]
- IC50: ≤ 100 nM

Compound: CC(=O)N1CC[C@H](n2cc(Oc3nc(O)c4ccncc4n3)cn2)C1 [Example 139, 1-[(3S)-3-[4-({4-hydroxypyrido[3,4-d]pyrimidin-2-yl}oxy)-1H-pyrazol-1-yl]pyrrolidin-1-yl]ethan-1-one]
- IC50: ≤ 100 nM

Compound: N#CCC(=O)N1CC[C@H](n2cc(Oc3nc(O)c4ccncc4n3)cn2)C1 [Example 140, 3-[(3S)-3-[4-({4-hydroxypyrido[3,4-d]pyrimidin-2-yl}oxy)-1H-pyrazol-1-yl]pyrrolidin-1-yl]-3-oxopropanenitrile]
- IC50: ≤ 100 nM

Compound: O=C(C1CC1)N1CC[C@H](n2cc(Oc3nc(O)c4ccncc4n3)cn2)C1 [Example 141, 2-({1-[(3S)-1-cyclopropanecarbonylpyrrolidin-3-yl]-1H-pyrazol-4-yl}oxy)pyrido[3,4-d]pyrimidin-4-ol]
- IC50: ≤ 100 nM

Compound: O=C(c1ccccc1)N1CC[C@H](n2cc(Oc3nc(O)c4ccncc4n3)cn2)C1 [Example 142, 2-({1-[(3S)-1-benzoylpyrrolidin-3-yl]-1H-pyrazol-4-yl}oxy)pyrido[3,4-d]pyrimidin-4-ol]
- IC50: ≤ 100 nM

Compound: O=C(C1CCNCC1)N1CC[C@H](n2cc(Oc3nc(O)c4ccncc4n3)cn2)C1 [Example 143, 2-({1-[(3S)-1-(piperidine-4-carbonyl)pyrrolidin-3-yl]-1H-pyrazol-4-yl}oxy)pyrido[3,4-d]pyrimidin-4-ol]
- IC50: ≤ 100 nM

Compound: CNCC(=O)N1CC[C@H](n2cc(Oc3nc(O)c4ccncc4n3)cn2)C1 [Example 144, 1-[(3S)-3-[4-({4-hydroxypyrido[3,4-d]pyrimidin-2-yl}oxy)-1H-pyrazol-1-yl]pyrrolidin-1-yl]-2-(methylamino)ethan-1-one]
- IC50: ≤ 100 nM

Compound: Oc1nc(Oc2cnn([C@H]3CCN(c4ccccc4)C3)c2)nc2cnccc12 [Example 145, 2-({1-[(3S)-1-phenylpyrrolidin-3-yl]-1H-pyrazol-4-yl}oxy)pyrido[3,4-d]pyrimidin-4-ol]
- IC50: ≤ 100 nM

Compound: Oc1nc(Oc2cnn([C@H]3CCN(c4ccc(F)cc4)C3)c2)nc2cnccc12 [Example 146, 2-({1-[(3S)-1-(4-fluorophenyl)pyrrolidin-3-yl]-1H-pyrazol-4-yl}oxy)pyrido[3,4-d]pyrimidin-4-ol]
- IC50: ≤ 100 nM

Compound: Oc1nc(Oc2cnn([C@H]3CCN(c4ccccc4F)C3)c2)nc2cnccc12 [Example 147, 2-({1-[(3S)-1-(2-fluorophenyl)pyrrolidin-3-yl]-1H-pyrazol-4-yl}oxy)pyrido[3,4-d]pyrimidin-4-ol]
- IC50: ≤ 100 nM

Compound: Oc1nc(Oc2cnn([C@H]3CCN(c4ccc(Cl)cc4)C3)c2)nc2cnccc12 [Example 148, 2-({1-[(3S)-1-(4-chlorophenyl)pyrrolidin-3-yl]-1H-pyrazol-4-yl}oxy)pyrido[3,4-d]pyrimidin-4-ol]
- IC50: ≤ 100 nM

Compound: Oc1nc(Oc2cnn([C@@H]3CCCNC3)c2)nc2cnccc12 [Example 149, 2-({1-[(3R)-piperidin-3-yl]-1H-pyrazol-4-yl}oxy)pyrido[3,4-d]pyrimidin-4-ol]
- IC50: ≤ 100 nM

Compound: CCS(=O)(=O)N1CCC[C@@H](n2cc(Oc3nc(O)c4ccncc4n3)cn2)C1 [Example 150, 2-({1-[(3R)-1-(ethanesulfonyl)piperidin-3-yl]-1H-pyrazol-4-yl}oxy)pyrido[3,4-d]pyrimidin-4-ol]
- IC50: ≤ 100 nM

Compound: O=S(=O)(c1ccccc1)N1CCC[C@@H](n2cc(Oc3nc(O)c4ccncc4n3)cn2)C1 [Example 152, 2-({1-[(3R)-1-(benzenesulfonyl)piperidin-3-yl]-1H-pyrazol-4-yl}oxy)pyrido[3,4-d]pyrimidin-4-ol]
- IC50: ≤ 100 nM

Compound: CC(=O)N1CCC[C@@H](n2cc(Oc3nc(O)c4ccncc4n3)cn2)C1 [Example 153, 1-[(3R)-3-[4-({4-hydroxypyrido[3,4-d]pyrimidin-2-yl}oxy)-1H-pyrazol-1-yl]piperidin-1-yl]ethan-1-one]
- IC50: ≤ 100 nM

Compound: N#CCC(=O)N1CCC[C@@H](n2cc(Oc3nc(O)c4ccncc4n3)cn2)C1 [Example 154, 3-[(3R)-3-[4-({4-hydroxypyrido[3,4-d]pyrimidin-2-yl}oxy)-1H-pyrazol-1-yl]piperidin-1-yl]-3-oxopropanenitrile]
- IC50: ≤ 100 nM

Compound: O=C(CO)N1CC[C@H](n2cc(Oc3nc(O)c4ccncc4n3)cn2)C1 [Example 155, 2-hydroxy-1-[(3S)-3-[4-({4-hydroxypyrido[3,4-d]pyrimidin-2-yl}oxy)-1H-pyrazol-1-yl]pyrrolidin-1-yl]ethan-1-one]
- IC50: ≤ 100 nM

Compound: O=C(C1CC1)N1CCC[C@@H](n2cc(Oc3nc(O)c4ccncc4n3)cn2)C1 [Example 156, 2-({1-[(3R)-1-cyclopropanecarbonylpiperidin-3-yl]-1H-pyrazol-4-yl}oxy)pyrido[3,4-d]pyrimidin-4-ol]
- IC50: ≤ 100 nM

Compound: O=C(c1ccccc1)N1CCC[C@@H](n2cc(Oc3nc(O)c4ccncc4n3)cn2)C1 [Example 157, 2-({1-[(3R)-1-benzoylpiperidin-3-yl]-1H-pyrazol-4-yl}oxy)pyrido[3,4-d]pyrimidin-4-ol]
- IC50: ≤ 100 nM

Compound: Oc1nc(Oc2cnn([C@@H]3CCCN(Cc4ccccc4)C3)c2)nc2cnccc12 [Example 158, 2-({1-[(3R)-1-benzylpiperidin-3-yl]-1H-pyrazol-4-yl}oxy)pyrido[3,4-d]pyrimidin-4-ol]
- IC50: ≤ 100 nM

Compound: Oc1nc(Oc2cnn([C@@H]3CCCN(c4ccc(F)cc4)C3)c2)nc2cnccc12 [Example 159, 2-({1-[(3R)-1-(4-fluorophenyl)piperidin-3-yl]-1H-pyrazol-4-yl}oxy)pyrido[3,4-d]pyrimidin-4-ol]
- IC50: ≤ 100 nM

Compound: Oc1nc(Oc2cnn([C@H]3CCCNC3)c2)nc2cnccc12 [Example 160, 2-({1-[(3S)-piperidin-3-yl]-1H-pyrazol-4-yl}oxy)pyrido[3,4-d]pyrimidin-4-ol]
- IC50: ≤ 100 nM

Compound: CCS(=O)(=O)N1CCC[C@H](n2cc(Oc3nc(O)c4ccncc4n3)cn2)C1 [Example 161, 2-({1-[(3S)-1-(ethanesulfonyl)piperidin-3-yl]-1H-pyrazol-4-yl}oxy)pyrido[3,4-d]pyrimidin-4-ol]
- IC50: ≤ 100 nM

Compound: O=S(=O)(C1CC1)N1CCC[C@H](n2cc(Oc3nc(O)c4ccncc4n3)cn2)C1 [Example 162, 2-({1-[(3S)-1-(cyclopropanesulfonyl)piperidin-3-yl]-1H-pyrazol-4-yl}oxy)pyrido[3,4-d]pyrimidin-4-ol]
- IC50: ≤ 100 nM

Compound: O=S(=O)(c1ccccc1)N1CCC[C@H](n2cc(Oc3nc(O)c4ccncc4n3)cn2)C1 [Example 163, 2-({1-[(3S)-1-(benzenesulfonyl)piperidin-3-yl]-1H-pyrazol-4-yl}oxy)pyrido[3,4-d]pyrimidin-4-ol]
- IC50: ≤ 100 nM
